Consider 32 compounds from patent publication US20240336574A1 (LATIGO BIOTHERAPEUTICS, INC., priority 2021, published 2024).

In assay [1] the target is T1, recombinant human NaV1.8 stably transfected HEK cells (Homo sapiens, UniProt Q9Y5Y9).
T1 construct: expressed in transfected cells; host or cells: HEK cells, stably transfected
Nature of the assay: Compound profiling on NaV1.8, human NaV1.8 cell line, SyncroPatch384PE automated patch clamp assay (Example 115, third set of compounds, Table 27). Type of assay: cell-based. The conditions noted are these: human NaV1.8 HEK cells, Table 27 (third set of compounds). How it is done:
Compound Profiling on NaV1.8 Human NaV1.8 Cell Line SyncroPatch384PE Assay
Compounds were tested on recombinant human NaV1.8 stably transfected HEK cells using the SyncroPatch384PE system, an automated patch clamp device. Cells were cultured at 37° C./5% CO2 in DMEM medium supplemented with GlutaMAX I, NEAA 1%, FBS 10% and seeded in T175 flasks. Cells were cultured at 30° C. one day prior to recording sodium currents. On the day of the recordings, cells were detached with 0.05% Trypsin-EDTA, resuspended in serum free DMEM medium and placed into the SyncroPatch384PE 6° C. pre-cooled cell hotel and shaken at 200 rpm. Intracellular solution (IC) contained, in mM: 10, CsCl; 110, CsF; 20, EGTA; 10, HEPES. Extracellular solution (EC) contained, in mM: 140, NaCl; 4, KCl; 5, Glucose; 10, HEPES; 2, CaCl2; 1, MgCl2. Washing solution contained, in mM: 40, NMDG; 100, NaCl; 4, KCl; 10, Glucose; 10, HEPES; 5, CaCl2; 1, MgCl2.
Compounds were tested in quadruplicates in 0.1% DMSO and 0.030% Pluronic Acid. Compounds were diluted 1:3.33 in EC solution to create a 10-point concentration response curve, spanning a final concentration range from 10-0.0002 μM in the assay plate. Compounds with low nM potency were retested using a lower concentration range (1-0.00002 μM). Each plate contained tetracaine and another tool compound as positive controls. Up to 7 compounds were tested on one plate. 150 μM tetracaine and 0.1% DMSO were used as high and low controls, respectively.
Whole cell patch clamp recordings were conducted according to Nanion's standard procedure for SyncroPatch384PE®. Cells were held at a holding potential of −120 mV. A depolarization step to 10 mV for 30 ms was applied (P1 measurement), followed by a hyperpolarization step to −100 mV for 100 ms. An inactivation step at −40 mV for 10 sec was applied before stepping to −100 mV for 20 ms, followed by a step to 10 mV for 30 ms (P2 measurement) and then back to −100 mV for 30 ms. Sweep interval was 15 sec with a sampling rate of 10 kHz. Following establishment of the whole-cell configuration in EC, two washing steps with reference buffer were performed to stabilize the baseline. Compounds were then applied by the SynchroPatch into each well and the current was recorded for five minutes in EC, followed by application of tetracaine to achieve full block at the end of the experiment. The potency of the compounds was assessed on two read-outs, resting state block (P1 measurement) or inactivated state block (P2 measurement) to obtain IC50 values. Values were normalized to high (tetracaine) and low (DMSO) controls.
(In general: Patch clamp records ionic current or voltage across a cell membrane.)

Assay [2] addresses T1, recombinant human NaV1.8 stably transfected HEK cells. Description: Compound profiling on NaV1.8, human NaV1.8 cell line, SyncroPatch384PE automated patch clamp assay (Example 102, first set of compounds, Table 16). In kind it is cell-based. The settings on record: human NaV1.8 HEK cells, Table 16 (first set of compounds). In a few lines:
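IC50s come from two read-outs: resting-state block (P1, 10 mV step from −120 mV) and inactivated-state block (P2, after 10 s at −40 mV), scaled between DMSO and 250 μM tetracaine. Compounds (20–0.001 μM final, 1:3 steps) were applied for 5 min, 15 s sweeps. Cells kept at 30 °C the day before.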

[3] abbreviates: inactivated state block (P2 measurement), read-out: P2 IC50.
The mark [4] stands for this setting: resting state block (P1 measurement), read-out: P1 IC50.
Where [5] appears, read: inactivated state block (P2 measurement), read-out: P2IC50.
[6] abbreviates: resting state block (P1 measurement), read-out: P1IC50.

The structures appear in SMILES notation. Bounds are passed on as bounds.

T1 sequence (Q9Y5Y9 whole entry): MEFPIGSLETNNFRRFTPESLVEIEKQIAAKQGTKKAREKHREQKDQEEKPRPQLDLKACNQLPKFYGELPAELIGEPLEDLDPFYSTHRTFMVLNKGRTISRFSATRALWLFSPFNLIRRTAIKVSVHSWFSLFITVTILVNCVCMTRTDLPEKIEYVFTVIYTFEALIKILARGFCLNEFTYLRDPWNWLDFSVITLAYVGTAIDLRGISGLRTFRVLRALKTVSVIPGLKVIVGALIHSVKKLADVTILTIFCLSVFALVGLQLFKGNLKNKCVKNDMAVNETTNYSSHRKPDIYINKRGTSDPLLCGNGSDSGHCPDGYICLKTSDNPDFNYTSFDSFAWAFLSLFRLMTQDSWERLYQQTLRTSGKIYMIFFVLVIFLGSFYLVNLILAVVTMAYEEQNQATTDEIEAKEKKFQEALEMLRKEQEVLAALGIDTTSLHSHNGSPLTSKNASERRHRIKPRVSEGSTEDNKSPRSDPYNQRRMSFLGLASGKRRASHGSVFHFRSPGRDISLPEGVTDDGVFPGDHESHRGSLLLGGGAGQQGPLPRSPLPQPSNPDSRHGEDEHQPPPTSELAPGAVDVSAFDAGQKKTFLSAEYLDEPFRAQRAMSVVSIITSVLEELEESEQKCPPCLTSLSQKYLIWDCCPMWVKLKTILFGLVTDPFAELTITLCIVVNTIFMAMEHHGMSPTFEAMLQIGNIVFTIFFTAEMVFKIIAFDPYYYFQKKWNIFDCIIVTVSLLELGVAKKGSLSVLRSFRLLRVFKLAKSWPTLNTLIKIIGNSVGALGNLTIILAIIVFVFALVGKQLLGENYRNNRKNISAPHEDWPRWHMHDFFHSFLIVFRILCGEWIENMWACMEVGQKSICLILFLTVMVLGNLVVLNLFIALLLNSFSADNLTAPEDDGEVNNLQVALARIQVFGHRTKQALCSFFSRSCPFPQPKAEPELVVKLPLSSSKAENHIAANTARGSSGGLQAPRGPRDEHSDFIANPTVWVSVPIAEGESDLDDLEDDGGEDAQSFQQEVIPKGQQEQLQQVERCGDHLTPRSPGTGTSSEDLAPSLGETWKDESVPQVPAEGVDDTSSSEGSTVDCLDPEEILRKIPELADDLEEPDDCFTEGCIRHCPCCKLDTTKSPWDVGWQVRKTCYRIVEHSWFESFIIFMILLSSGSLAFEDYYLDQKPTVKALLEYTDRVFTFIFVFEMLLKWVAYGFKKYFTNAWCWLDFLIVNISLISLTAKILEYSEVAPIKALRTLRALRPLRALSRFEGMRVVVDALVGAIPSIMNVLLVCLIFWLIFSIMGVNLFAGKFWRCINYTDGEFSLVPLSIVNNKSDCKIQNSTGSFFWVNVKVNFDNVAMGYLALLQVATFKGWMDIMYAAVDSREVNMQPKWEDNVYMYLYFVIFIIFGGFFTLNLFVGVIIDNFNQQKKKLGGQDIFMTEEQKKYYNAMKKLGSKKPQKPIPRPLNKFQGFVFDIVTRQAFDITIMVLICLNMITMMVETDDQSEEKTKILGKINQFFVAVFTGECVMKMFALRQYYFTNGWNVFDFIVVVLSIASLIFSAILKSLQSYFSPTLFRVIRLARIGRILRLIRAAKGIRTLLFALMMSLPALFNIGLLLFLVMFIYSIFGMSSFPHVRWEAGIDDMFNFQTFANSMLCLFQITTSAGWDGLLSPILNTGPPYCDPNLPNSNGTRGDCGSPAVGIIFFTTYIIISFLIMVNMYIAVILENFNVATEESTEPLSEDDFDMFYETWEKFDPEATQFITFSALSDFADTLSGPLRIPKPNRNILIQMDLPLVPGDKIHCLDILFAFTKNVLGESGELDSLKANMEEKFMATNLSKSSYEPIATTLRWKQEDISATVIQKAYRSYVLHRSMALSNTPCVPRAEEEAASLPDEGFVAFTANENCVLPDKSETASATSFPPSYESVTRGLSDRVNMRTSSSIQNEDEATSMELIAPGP

For the compound `Cc1cc(F)ccc1Oc1nnc(C(F)(F)F)cc1C(=O)Nc1cccc(S(C)(=O)=O)n1` [Compound 4], the IC50 in assay [1] (setting [3]) and in assay [1] (setting [4]) was greater than 5000 nM each time.
Consider `Cc1cc(F)ccc1Oc1nnc(C(F)(F)F)cc1C(=O)Nc1cccc(NS(C)(=O)=O)c1` [Compound 8], for which the IC50 in assay [1] (setting [3]) and in assay [1] (setting [4]) was 1000 to 5000 nM throughout.
As to `Cc1cc(F)ccc1Oc1nnc(C(F)(F)F)cc1C(=O)Nc1cccc(-n2cncn2)c1` [Compound 9], the IC50 in assay [1] (setting [3]) was 1000 to 5000 nM; in assay [1] (setting [4]), greater than 5000 nM.
On the same counts, the results for `Cc1cc(F)ccc1Oc1nnc(C(F)(F)F)cc1C(=O)Nc1cccc(CS(C)(=O)=O)c1` [Compound 10] are greater than 5000 nM and greater than 5000 nM.
With `Cc1cc(F)ccc1Oc1nnc(C(F)(F)F)cc1C(=O)Nc1ccn2cnnc2c1` [Compound 11], the IC50 in assay [1] (setting [3]) and in assay [1] (setting [4]) was 1000 to 5000 nM throughout.
Turning to `Cc1cc(F)ccc1Oc1nnc(C(F)(F)F)cc1C(=O)Nc1cccc(-n2cnnc2)c1` [Compound 12], the IC50 in assay [1] (setting [3]) and in assay [1] (setting [4]) was 1000 to 5000 nM in each case.
Consider `COc1cc(F)ccc1Oc1nnc(C(F)(F)F)cc1C(=O)Nc1cccc(S(C)(=O)=O)n1` [Compound 15], for which the values for the IC50 in assay [1] (setting [3]) and in assay [1] (setting [4]) were 1000 to 5000 nM and greater than 5000 nM, respectively.
On the same counts, the results for `COc1cc(F)ccc1Oc1nnc(C(F)(F)F)cc1C(=O)Nc1cncc(S(C)(=O)=O)c1` [Compound 16] are 1000 to 5000 nM and 1000 to 5000 nM.
On to `COc1cc(F)ccc1Oc1nnc(C(F)(F)F)cc1C(=O)Nc1cccc(S(=O)(=O)C(C)C)c1` [Compound 17], for which the figures for the IC50 in assay [1] (setting [3]) and in assay [1] (setting [4]) were 201 to 500 nM and 501 to 1000 nM, respectively.
For `COc1cc(F)ccc1Oc1nnc(C(F)(F)F)cc1C(=O)Nc1cccc(NS(C)(=O)=O)c1` [Compound 18], in that order: 501 to 1000 nM and 1000 to 5000 nM.
For `COc1cc(F)ccc1Oc1nnc(C(F)(F)F)cc1C(=O)Nc1cccc(CS(C)(=O)=O)c1` [Compound 19], in that order: 1000 to 5000 nM and 1000 to 5000 nM.
For `COc1cc(F)ccc1Oc1nnc(C(F)(F)F)cc1C(=O)Nc1ccn2cnnc2c1` [Compound 21], in that order: 501 to 1000 nM and 501 to 1000 nM.
For the compound `COc1cc(F)ccc1Oc1nnc(C(F)(F)F)cc1C(=O)Nc1cccc(-n2cnnc2)c1` [Compound 22], the IC50 in assay [1] (setting [3]) and in assay [1] (setting [4]) was 1000 to 5000 nM each time.
`COc1cc(F)ccc1Oc1nnc(C(F)(F)F)cc1C(=O)Nc1cc(S(C)(=O)=O)ccc1F` [Compound 23]: the IC50 in assay [1] (setting [3]) and in assay [1] (setting [4]) was 201 to 500 nM in each case.
Consider `COc1cc(F)ccc1Oc1nnc(C(F)(F)F)cc1C(=O)Nc1cccc(S(=O)(=O)C2CC2)c1` [Compound 25], for which the IC50 in assay [1] (setting [3]) and in assay [1] (setting [4]) was no more than 200 nM throughout.
`COc1cc(F)ccc1Oc1nnc(C(F)(F)F)cc1C(=O)Nc1cccc(C(N)=O)c1` [Compound 26]: the IC50 in assay [1] (setting [3]) and in assay [1] (setting [4]) was no more than 200 nM in each case.
In the case of `COc1cc(F)ccc1Oc1nnc(C(F)(F)F)cc1C(=O)Nc1ccc(C(N)=O)cc1` [Compound 27], the IC50 in assay [1] (setting [3]) and in assay [1] (setting [4]) was no more than 200 nM each time.
In the case of `COc1cc(NC(=O)c2cc(C(F)(F)F)nnc2Oc2ccc(F)cc2C)c(C)cn1` [Compound 29], the IC50 in assay [1] (setting [3]) and in assay [1] (setting [4]) was greater than 5000 nM each time.
With `CSc1ccc(NC(=O)c2cc(C(F)(F)F)nnc2Oc2ccc(F)cc2C)cc1` [Compound 32], the IC50 in assay [1] (setting [3]) and in assay [1] (setting [4]) was greater than 5000 nM throughout.
As for `COc1cc(NC(=O)c2cc(C(F)(F)F)nnc2Oc2ccc(F)cc2OC)ccn1` [Compound 33], the IC50 in assay [1] (setting [3]) and in assay [1] (setting [4]) was no more than 200 nM in each case.
As to `CS(=O)(=O)c1cccc(NC(=O)c2cc(C(F)(F)F)nnc2Oc2ccc(OC(F)F)cc2)c1` [Compound 34], the IC50 in assay [1] (setting [3]) and in assay [1] (setting [4]) was no more than 200 nM in each case.
In the case of `Cc1cc(OC(F)(F)F)ccc1Oc1nnc(C(F)(F)F)cc1C(=O)Nc1cccc(S(C)(=O)=O)c1` [Compound 35], the IC50 in assay [1] (setting [3]) and in assay [1] (setting [4]) was no more than 200 nM each time.
For the compound `COc1cc(C#N)ccc1Oc1ncc(C2CCOCC2)cc1C(=O)Nc1cccc(S(C)(=N)=O)c1` (stereo not shown) [Compound 1727, 2-(4-cyano-2-methoxy-phenoxy)-N-[3-(methylsulfonimidoyl)phenyl]-5-tetrahydropyran-4-yl-pyridine-3-carboxamide], the IC50 in assay [2] (setting [5]) and in assay [2] (setting [6]) was 200 to 500 nM throughout.
For the compound `Cc1cc(F)ccc1Oc1ncc(Br)c(C)c1C(=O)Nc1cccc([S@@](C)(=N)=O)c1` [Compound 1728, 5-bromo-2-(4-fluoro-2-methylphenoxy)-N-{3-[(S)-imino(methyl)oxo-λ^6-sulfanyl]phenyl}-4-methylpyridine-3-carboxamide], the IC50 in assay [2] (setting [5]) and in assay [2] (setting [6]) was no more than 20 nM each time.
With `COc1c(Oc2nc(C(F)(F)F)ccc2C(=O)Nc2cccc(S(C)(=N)=O)c2)ccc(F)c1F` (stereo not shown) [Compound 1729, 2-(3,4-difluoro-2-methoxy-phenoxy)-N-[3-(methylsulfonimidoyl)phenyl]-6-(trifluoromethyl)pyridine-3-carboxamide], the IC50 in assay [2] (setting [5]) and in assay [2] (setting [6]) was no more than 20 nM in each case.
Take `COc1cc(C#N)ccc1Oc1nc(C(F)(F)F)cc(C)c1C(=O)Nc1cccc([S@](C)(=N)=O)c1` [Compound 1730, (R)-2-(4-cyano-2-methoxyphenoxy)-4-methyl-N-(3-(S-methylsulfonimidoyl)phenyl)-6-(trifluoromethyl)nicotinamide]: the IC50 in assay [2] (setting [5]) and in assay [2] (setting [6]) was no more than 20 nM in each case.
`Cc1cc(F)ccc1Oc1ncc(Br)c(C)c1C(=O)Nc1cccc([S@](C)(=N)=O)c1` [Compound 1731, (R)-5-bromo-2-(4-fluoro-2-methylphenoxy)-4-methyl-N-(3-(S-methylsulfonimidoyl)phenyl)nicotinamide]: the IC50 in assay [2] (setting [5]) and in assay [2] (setting [6]) was no more than 20 nM in each case.
For `Cc1cc(F)ccc1Oc1nnc(C(F)(F)F)c(N2CCCCC2)c1C(=O)Nc1cccc([S@@](C)(=N)=O)c1` [Compound 1732, (S)-3-(4-fluoro-2-methylphenoxy)-N-(3-(S-methylsulfonimidoyl)phenyl)-5-(piperidin-1-yl)-6-(trifluoromethyl)pyridazine-4-carboxamide], the IC50 in assay [2] (setting [5]) and in assay [2] (setting [6]) was 200 to 500 nM throughout.
Consider `COc1ccc(-c2nnc(Oc3ccc(C#N)cc3OC)c(C(=O)Nc3cccc([S@](C)(=N)=O)c3)c2C)cn1` [Compound 1733, (R)-3-(4-cyano-2-methoxyphenoxy)-6-(6-methoxypyridin-3-yl)-5-methyl-N-(3-(S-methylsulfonimidoyl)phenyl)pyridazine-4-carboxamide], for which the IC50 in assay [2] (setting [5]) was in the range of 40 to 200 nM; in assay [2] (setting [6]) it was 200 to 500 nM.
For `COc1cc(C#N)ccc1Oc1nc(C(F)(F)F)nc(C)c1C(=O)Nc1cccc(C(N)=O)c1` [Compound 1742, N-(3-carbamoylphenyl)-4-(4-cyano-2-methoxy-phenoxy)-6-methyl-2-(trifluoromethyl)pyrimidine-5-carboxamide], in that order: 20 to 40 nM and 40 to 200 nM.
For `COc1cc(C#N)ccc1Oc1nc(C(F)(F)F)nc(C)c1C(=O)Nc1cccc(S(C)(=N)=O)c1` (stereo not shown) [Compound 1743, 4-(4-cyano-2-methoxy-phenoxy)-6-methyl-N-[3-(methylsulfonimidoyl)phenyl]-2-(trifluoromethyl)pyrimidine-5-carboxamide], in that order: no more than 20 nM and no more than 20 nM.
On the same counts, the results for `COc1cc(C#N)ccc1Oc1nc(C(F)(F)F)nc(C)c1C(=O)Nc1ccc(C(N)=O)cc1` [Compound 1744, N-(4-carbamoylphenyl)-4-(4-cyano-2-methoxy-phenoxy)-6-methyl-2-(trifluoromethyl)pyrimidine-5-carboxamide] are 40 to 200 nM and 40 to 200 nM.
